Values quoted from earlier work as cited in patent US6362007B1, “Methylated, SMD homologous peptides, reactive with the antibodies from sera of living beings affected with systemic lupus erythematosus” (Innogenetics N.V., priority 1997, dated 2002).

Test system: antibodies in SmD positive sera
Conditions: James et al. 1994; synthetic octapeptides of SmD1

## amino acid 82-90: additional SmD1 epitope in the region of amino acid 82-90 (James et al. 1994) (DVEPKVKSK; UniProt P62314 82-90, looked up, fragment)
  SmD positive sera (precipitin positive) reactive: 7 of 9

## octapeptides 92-112: SmD1 sequence spanning synthetic octapeptides 92-112 (James et al. 1994) (REAVAGRGRGRGRGRGRGRGR; UniProt P62314 92-112, looked up, fragment)
  SmD positive sera (precipitin positive) reactive: 8 of 9
